Results taken from the NIST ThermoML archive (doi:10.1016/j.fluid.2010.06.020).

Conditions: Liquid, Ebulliometric method (Recirculating still)

CCC(C)CO (stereo not given) [2-methyl-1-butanol]
Conditions | vapor or sublimation pressure [kPa]
345.51 K | 9.333
350.44 K | 12
354.51 K | 14.66
358.02 K | 17.33
361.8 K | 20.66
365.12 K | 24
368.62 K | 28
371.74 K | 32
374.56 K | 36
377.13 K | 40
379.5 K | 44
382.05 K | 48.66
384.41 K | 53.33
386.92 K | 58.66
389.23 K | 63.99
391.4 K | 69.33
393.43 K | 74.66
395.35 K | 79.99
397.17 K | 85.33
398.9 K | 90.66
400.96 K | 97.33

CC(C)C(C)O (stereo not given) [3-methyl-2-butanol]
Conditions | vapor or sublimation pressure [kPa]
352.84 K | 28.66
355.33 K | 32
357.63 K | 35.33
359.76 K | 38.66
361.74 K | 42
363.6 K | 45.33
365.69 K | 49.33
367.65 K | 53.33
369.5 K | 57.33
371.24 K | 61.33
372.9 K | 65.33
374.99 K | 70.66
376.95 K | 75.99
378.81 K | 81.33
380.58 K | 86.66
382.26 K | 91.99
383.87 K | 97.33
384.45 K | 99.33

CCCC(C)O (stereo not given) [pentan-2-ol]
Conditions | vapor or sublimation pressure [kPa]
350.91 K | 18.66
353.74 K | 21.33
356.29 K | 24
358.61 K | 26.66
361.26 K | 30
363.69 K | 33.33
365.92 K | 36.66
368 K | 40
370.31 K | 44
372.45 K | 48
374.46 K | 52
376.35 K | 55.99
378.13 K | 59.99
380.36 K | 65.33
382.45 K | 70.66
384.42 K | 75.99
386.27 K | 81.33
388.47 K | 87.99
390.53 K | 94.66
391.32 K | 97.33

CCC(C)(C)O [2-methylbutan-2-ol]
Conditions | vapor or sublimation pressure [kPa]
335.75 K | 19.33
339.03 K | 22.66
341.93 K | 26
344.54 K | 29.33
346.91 K | 32.66
349.1 K | 36
351.52 K | 40
353.75 K | 44
355.83 K | 48
357.78 K | 52
359.9 K | 56.66
361.88 K | 61.33
364.01 K | 66.66
366.01 K | 71.99
367.9 K | 77.33
369.69 K | 82.66
371.8 K | 89.33
373.79 K | 95.99
374.56 K | 98.66

CC(C)CCO [3-methylbutan-1-ol]
Conditions | vapor or sublimation pressure [kPa]
366.27 K | 22.66
369.95 K | 26.66
373.24 K | 30.66
376.14 K | 34.66
379.65 K | 40
382.78 K | 45.33
385.62 K | 50.66
388.23 K | 55.99
390.64 K | 61.33
392.88 K | 66.66
395.48 K | 73.33
397.9 K | 79.99
400.18 K | 86.66
402.32 K | 93.33
403.77 K | 97.99

CCC(O)CC [3-pentanol]
Conditions | vapor or sublimation pressure [kPa]
342.02 K | 14.66
345.41 K | 17.33
348.4 K | 20
351.07 K | 22.66
354.07 K | 26
356.77 K | 29.33
359.24 K | 32.66
360.62 K | 34.66
362.79 K | 38
364.81 K | 41.33
367.06 K | 45.33
369.16 K | 49.33
371.13 K | 53.33
372.99 K | 57.33
374.75 K | 61.33
376.95 K | 66.66
379.02 K | 71.99
380.97 K | 77.33
382.82 K | 82.66
385 K | 89.33
387.06 K | 95.99
387.65 K | 97.99
